Experimental data as given in patent publication US9302999B2, “Substituted triazoles as herbicides” (E. I. DU PONT DE NEMOURS AND COMPANY, priority 2012, dated 2016).

How the values were obtained:
Format in all cases: in vivo
[1] = tested on: barley (winter barley, Hordeum vulgare); experiment: Test C postemergence: barley
Description: (§1) At the same time, plants selected from these crop and weed species and also barley (winter barley, Hordeum vulgare), canarygrass (Phalaris minor), chickweed (common chickweed, Stellaria media) windgrass (Apera spica-venti) and deadnettle (henbit deadnettle, Lamium amplexicaule) were planted in pots containing Redi-Earth® planting medium (Scotts Company, 14111 Scottslawn Road, Marysville, Ohio 43041) comprising spaghnum peat moss, vermiculite, wetting agent and starter nutrients and treated with postemergence applications of test chemicals formulated in the same manner. Plants ranged in height from 2 to 18 cm (1- to 4-leaf stage) for postemergence treatments.
(§2) Treated plants and controls were maintained in a greenhouse for 13 to 15 days, after which time all species were compared to controls and visually evaluated. Plant response ratings, summarized in Table C, are based on a scale of 0 to 100 where 0 is no effect and 100 is complete control. A dash (-) response means no test result.

[2] = tested on: woolly cupgrass (Eriochloa villosa); experiment: Test C pre-/postemergence: woolly cupgrass; conditions: Postemergence
Description: (§3) Seeds of plant species selected from blackgrass (Alopecurus myosuroides), bromegrass, downy (downy bromegrass, Bromus tectorum), foxtail, green (green foxtail, Setaria viridis), ryegrass, Italian (Italian ryegrass, Lolium multiflorum), winter wheat (Triticum aestivum), wild oat (Avena fatua), galium (catchweed bedstraw, Galium aparine), bermudagrass (Cynodon dactylon), surinam grass (Brachiaria decumbens), cocklebur (common cocklebur, Xanthium strumarium), corn (Zea mays), large crabgrass (Digitaria sanguinalis), woolly cupgrass (Eriochloa villosa), foxtail, giant (giant foxtail, Setaria faberii), goosegrass (Eleusine indica), johnsongrass (Sorghum halepense), kochia (Kochia scoparia), lambsquarters (Chenopodium album), morningglory (Ipomoea coccinea), nightshade (eastern black nightshade, Solanum ptycanthum), nutsedge, yellow (yellow nutsedge, Cyperus esculentus), pigweed (Amaranthus retroflexus), ragweed (common ragweed, Ambrosia elation), soybean (Glycine max), common (oilseed) sunflower (Helianthus annuus), Russian thistle (Salsola kali) and velvetleaf (Abutilon theophrasti) were planted into a blend of loam soil and sand and treated preemergence with test chemicals formulated in a non-phytotoxic solvent mixture which included a surfactant.
as §1, §2

[3] = tested on: cocklebur (common cocklebur, Xanthium strumarium); experiment: Test C pre-/postemergence: cocklebur; conditions: Postemergence
Description: as §3, §1, §2

rice (Oryza sativa) = experiment: Test B flooded paddy: rice; conditions: Flood, applied to paddy water at 2-leaf stage, visually evaluated after 13 to 15 days
How it was run: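 Flooded-pot test: compound dosed into 3 cm of standing water above soil when plants had two leaves. Visual control ratings (0–100) versus untreated plants after 13–15 d.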

[4] = 16 g ai/ha, scale 0 to 100, 0 no effect, 100 complete control
[5] = 31 g ai/ha, scale 0 to 100 (0 no effect, 100 complete control)
[6] = 62 g ai/ha, scale 0 to 100 (0 no effect, 100 complete control)
[7] = 125 g ai/ha, scale 0 to 100, 0 no effect, 100 complete control

With `Cc1nn(-c2ccc(C(F)(F)F)cc2)nc1Cc1cccc(C(F)(F)F)c1` [Compound 124] the “Plant response rating, Barley” value [1, 4] was 5, the “Plant response rating, Barley” value [1, 5] was 15 and the “Plant response rating, Barley” value [1, 6] was 30. For the same molecule, the “Plant response rating, Barley” value [1, 7] was 30, the “Plant response rating, Cupgrass, Woolly” value [2, 4] was 5 and the “Plant response rating, Cupgrass, Woolly” value [2, 5] was 5. The “Plant response rating, Cupgrass, Woolly” value [2, 6] was 10, the “Plant response rating, Cupgrass, Woolly” value [2, 7] was 20 and the “Plant response rating, Cocklebur” value [3, 4] was 10. The “Plant response rating, Cocklebur” value [3, 5] was 15, the “Plant response rating, Cocklebur” value [3, 6] was 20 and the “Plant response rating, Cocklebur” value [3, 7] was 55.

For `CCCc1nn(-c2ccc(F)cc2)nc1Cc1ccnc(C(F)(F)F)c1` [Compound 153], the “Plant response rating, Rice (0 to 100 scale, 0 is no effect, 100 is complete control)” value (rice (Oryza sativa); 250 g ai/ha) was 60.

In the case of `Cc1nn(-c2ccc(C(F)(F)F)c(F)c2)nc1Cc1ccnc(C(F)(F)F)c1` [Compound 162], the “Plant response rating, Rice (0 to 100 scale, 0 is no effect, 100 is complete control)” value (rice (Oryza sativa); 125 g ai/ha) is reported as 25.

`CCc1nn(-c2ccc(F)cc2)nc1Oc1ccnc(C(F)(F)F)c1` [Compound 166] was tested, and the “Plant response rating, Rice (0 to 100 scale, 0 is no effect, 100 is complete control)” value (rice (Oryza sativa); 125 g ai/ha) was 80.

`CCCc1nn(-c2ccc(C(F)(F)F)c(F)c2)nc1Oc1ccnc(C(F)(F)F)c1` [Compound 185] was tested, and the “Plant response rating, Rice (0 to 100 scale, 0 is no effect, 100 is complete control)” value (rice (Oryza sativa); 250 g ai/ha) was 65.

With `CCOc1nn(-c2ccc(Br)cc2)nc1Cc1ccnc(C(F)(F)F)c1` [Compound 189] the “Plant response rating, Rice (0 to 100 scale, 0 is no effect, 100 is complete control)” value (rice (Oryza sativa); 125 g ai/ha) was 35.
